The source of these data is PMC8528301 (PLoS ONE, 2021).

The conditions of series [1]: bile duct cannulated rats; no reference given; cited from earlier work.
The subject of another series is CYP3A4. More on the design: method as in PMID 19282395. Conditions: cited from earlier work.
The nature of series [2]: Dasatinib disposition in bile duct cannulated rats (literature). It is filed as in vivo, rat.
For series [3] the following is noted: oral dosing; monkeys; cited from earlier work.

The term Tmax denotes the time from dosing to the highest level.

With `Cc1nc(Nc2ncc(C(=O)Nc3c(C)cccc3Cl)s2)cc(N2CCN(CCO)CC2)n1` [dasatinib], in series [1], the oral bioavailability was 27% and the “percentage of unchanged drug in the gastrointestinal tract” value was 33%. Besides, the “K(inact), CYP3A4 mechanism-based inactivation” value with CYP3A4 is 0.034 min (-1). Further, the KI (inactivation) in the series with CYP3A4 (read-out: K(I), CYP3A4 mechanism-based inactivation) is 6.3 µM. For the same molecule, the percentage absorbed in series [2] (bile duct cannulated rats, inferred from unchanged drug) was 67%. In series [2] (rats), the “share of absorbed drug that might undergo hepatic metabolism” value is on record as 60% and the “share of total drug that might undergo hepatic metabolism” value was “at least 40%”. Also, in series [3], the time of peak concentration (Tmax) is 36 min.
